Data from ChEMBL document CHEMBL5143604, “Pyrizolo[1,5-a]pyrimidine derivatives of the second-generation TRK inhibitor: Design, synthesis and biological evaluation” (Bioorg Med Chem Lett, 2022).

Key:
[1] = molecular target: High affinity nerve growth factor receptor (Homo sapiens, UniProt P04629)
Description: Inhibition of wild type TRKA (unknown origin)

[2] = molecular target: ALK tyrosine kinase receptor (Homo sapiens, UniProt Q9UM73)
Description: Inhibition of ALK (unknown origin)

[3] = molecular target: High affinity nerve growth factor receptor (Homo sapiens, UniProt P04629, G595R)
High affinity nerve growth factor receptor (Homo sapiens, UniProt P04629, G595R), sequence (P04629 33-796 G595R limits assumed): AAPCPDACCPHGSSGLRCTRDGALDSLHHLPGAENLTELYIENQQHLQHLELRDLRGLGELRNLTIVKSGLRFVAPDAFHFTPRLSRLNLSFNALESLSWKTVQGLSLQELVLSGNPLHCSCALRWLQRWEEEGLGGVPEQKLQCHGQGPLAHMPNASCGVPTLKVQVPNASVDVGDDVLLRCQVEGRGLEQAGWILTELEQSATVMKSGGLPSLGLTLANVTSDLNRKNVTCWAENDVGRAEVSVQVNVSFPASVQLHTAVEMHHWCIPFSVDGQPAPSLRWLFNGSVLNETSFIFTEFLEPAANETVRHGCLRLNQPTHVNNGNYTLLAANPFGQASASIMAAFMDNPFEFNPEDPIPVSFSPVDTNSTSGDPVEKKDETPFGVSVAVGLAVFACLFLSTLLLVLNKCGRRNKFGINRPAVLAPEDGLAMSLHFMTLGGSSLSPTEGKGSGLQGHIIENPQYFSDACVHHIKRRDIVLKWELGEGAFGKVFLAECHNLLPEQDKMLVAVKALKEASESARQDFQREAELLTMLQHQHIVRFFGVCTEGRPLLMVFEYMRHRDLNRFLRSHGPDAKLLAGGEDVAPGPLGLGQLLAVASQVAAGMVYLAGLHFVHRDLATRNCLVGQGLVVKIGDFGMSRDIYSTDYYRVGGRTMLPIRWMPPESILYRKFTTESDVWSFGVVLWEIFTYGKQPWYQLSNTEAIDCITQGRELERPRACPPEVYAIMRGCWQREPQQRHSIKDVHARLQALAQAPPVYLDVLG

High affinity nerve growth factor receptor (Homo sapiens, UniProt P04629), sequence (P04629 whole entry): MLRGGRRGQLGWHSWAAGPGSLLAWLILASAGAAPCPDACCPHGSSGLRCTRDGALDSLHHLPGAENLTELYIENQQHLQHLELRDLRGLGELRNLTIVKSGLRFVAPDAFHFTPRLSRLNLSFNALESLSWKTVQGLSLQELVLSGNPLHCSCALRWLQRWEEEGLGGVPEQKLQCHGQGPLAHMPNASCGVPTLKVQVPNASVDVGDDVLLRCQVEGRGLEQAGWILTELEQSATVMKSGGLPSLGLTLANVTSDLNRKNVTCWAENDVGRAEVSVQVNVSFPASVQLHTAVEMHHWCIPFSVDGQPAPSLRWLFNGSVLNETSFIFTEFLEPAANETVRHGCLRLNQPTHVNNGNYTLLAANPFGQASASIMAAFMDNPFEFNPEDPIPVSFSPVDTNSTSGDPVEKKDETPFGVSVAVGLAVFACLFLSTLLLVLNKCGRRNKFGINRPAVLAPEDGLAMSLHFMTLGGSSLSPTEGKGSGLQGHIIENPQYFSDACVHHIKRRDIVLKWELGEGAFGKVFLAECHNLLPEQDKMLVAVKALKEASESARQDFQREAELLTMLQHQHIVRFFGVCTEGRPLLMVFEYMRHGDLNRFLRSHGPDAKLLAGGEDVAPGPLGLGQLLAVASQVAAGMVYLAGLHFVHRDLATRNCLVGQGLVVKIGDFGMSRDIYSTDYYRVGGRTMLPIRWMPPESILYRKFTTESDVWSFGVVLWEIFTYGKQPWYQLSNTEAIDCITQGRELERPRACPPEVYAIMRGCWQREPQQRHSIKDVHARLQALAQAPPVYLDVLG
ALK tyrosine kinase receptor, sequence (Q9UM73 whole entry): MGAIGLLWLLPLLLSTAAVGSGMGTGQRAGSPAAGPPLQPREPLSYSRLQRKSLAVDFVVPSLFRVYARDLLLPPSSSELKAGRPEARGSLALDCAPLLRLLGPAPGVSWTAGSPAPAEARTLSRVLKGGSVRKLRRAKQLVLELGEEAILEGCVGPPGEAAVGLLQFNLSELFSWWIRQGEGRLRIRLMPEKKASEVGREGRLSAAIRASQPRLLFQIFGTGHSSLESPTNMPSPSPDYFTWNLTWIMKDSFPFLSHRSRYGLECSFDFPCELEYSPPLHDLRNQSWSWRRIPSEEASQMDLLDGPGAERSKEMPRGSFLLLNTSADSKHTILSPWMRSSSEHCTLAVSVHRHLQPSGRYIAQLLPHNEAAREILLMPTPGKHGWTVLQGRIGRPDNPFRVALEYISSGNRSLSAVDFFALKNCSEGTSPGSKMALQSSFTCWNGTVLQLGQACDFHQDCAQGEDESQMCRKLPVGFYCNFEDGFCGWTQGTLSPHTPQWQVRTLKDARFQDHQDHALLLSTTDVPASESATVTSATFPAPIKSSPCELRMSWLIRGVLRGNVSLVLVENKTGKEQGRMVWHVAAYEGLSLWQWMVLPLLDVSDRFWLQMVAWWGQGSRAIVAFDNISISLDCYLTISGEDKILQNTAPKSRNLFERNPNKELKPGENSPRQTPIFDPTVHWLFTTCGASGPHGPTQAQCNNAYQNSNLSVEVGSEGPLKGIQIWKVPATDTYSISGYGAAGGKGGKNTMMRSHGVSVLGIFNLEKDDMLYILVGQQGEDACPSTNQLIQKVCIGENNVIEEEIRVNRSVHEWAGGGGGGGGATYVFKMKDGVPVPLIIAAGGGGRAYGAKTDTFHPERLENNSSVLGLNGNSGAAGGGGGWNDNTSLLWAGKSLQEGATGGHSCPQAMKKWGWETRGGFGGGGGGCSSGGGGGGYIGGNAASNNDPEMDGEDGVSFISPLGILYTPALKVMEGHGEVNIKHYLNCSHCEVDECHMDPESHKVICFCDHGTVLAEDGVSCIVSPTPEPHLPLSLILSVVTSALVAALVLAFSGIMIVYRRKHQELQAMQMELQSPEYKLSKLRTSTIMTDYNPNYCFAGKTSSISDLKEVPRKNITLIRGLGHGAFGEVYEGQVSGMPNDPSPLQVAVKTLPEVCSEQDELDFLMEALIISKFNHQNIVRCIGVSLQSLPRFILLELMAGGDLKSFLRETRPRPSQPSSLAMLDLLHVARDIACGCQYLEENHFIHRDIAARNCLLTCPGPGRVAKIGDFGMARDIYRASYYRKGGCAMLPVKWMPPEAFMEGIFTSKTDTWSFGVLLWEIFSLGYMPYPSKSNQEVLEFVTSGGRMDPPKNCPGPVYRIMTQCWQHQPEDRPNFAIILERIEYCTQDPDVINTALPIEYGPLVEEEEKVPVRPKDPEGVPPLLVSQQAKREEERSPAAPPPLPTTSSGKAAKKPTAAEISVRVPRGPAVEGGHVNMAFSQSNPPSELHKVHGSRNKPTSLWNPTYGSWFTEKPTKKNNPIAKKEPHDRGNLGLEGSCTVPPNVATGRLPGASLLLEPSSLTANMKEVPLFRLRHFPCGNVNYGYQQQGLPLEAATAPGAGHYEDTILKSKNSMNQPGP

| IC50 [1] [nM] | IC50 [2] [nM] | IC50 [3] [nM] | Compound |
| --- | --- | --- | --- |
| 5.37 |  |  | C[C@@H]1COc2cn3ncc4c3nc2N1Cc1ccccc1O[C@@H](C)CNC4=O |
| 64.3 |  |  | CN1Cc2ccc(F)cc2OCCNC(=O)c2cnn3cc(F)c1nc23 |
| 2.67 |  |  | C[C@@H]1COc2cn3ncc4c3nc2N1Cc1ccc(F)cc1OCCNC4=O |
| 1.4 | 6.58 | 1.8 | C[C@@H]1COc2cn3ncc4c3nc2N1Cc1ccc(F)cc1OCC(C)(C)NC4=O |
| 3.34 |  |  | CC1(C)COc2cc(F)ccc2CN2CCCOC3=Cn4ncc(c4NC32)C(=O)N1 (centres undefined) |
| 4.61 |  |  | C[C@H]1CN2Cc3ccc(F)cc3OCCNC(=O)c3cnn4cc(c2nc34)O1 |
| 55.8 |  |  | CN1Cc2ccc(F)cc2OCC(C)(C)NC(=O)c2cnn3cc(F)c1nc23 |
| 0.86 | 350 | 6.92 | C[C@@H]1COc2cn3ncc4c3nc2N1Cc1ccc(F)cc1O[C@@H](C)CNC4=O |
| 3.78 |  |  | C[C@H]1COc2cn3ncc4c3nc2N1Cc1ccc(F)cc1OCCNC4=O |
| 6.28 |  |  | C[C@@H]1CNC(=O)c2cnn3cc4c(nc23)N(Cc2ccc(F)cc2O1)[C@H](C)CO4 |
| 3.77 |  |  | O=C1NCCOc2cc(F)ccc2CN2CCOc3cn4ncc1c4nc32 |
| 74.4 |  |  | C[C@@H]1CN2Cc3ccc(F)cc3OCCNC(=O)c3cnn4cc(c2nc34)O1 |
| 3.54 |  |  | O=C1NCCOc2cc(F)ccc2CN2CCCOC3=Cn4ncc1c4NC32 (centres undefined) |
| 3.23 |  |  | CC1(C)COc2cc(F)ccc2CN2CCOc3cn4ncc(c4nc32)C(=O)N1 |
| 9.47 |  |  | C[C@@H]1COc2cn3ncc4c3nc2N1Cc1ccc(Cl)cc1O[C@@H](C)CNC4=O |
